Data published in ChEMBL document CHEMBL1909294, “Translating clinical findings into knowledge in drug safety evaluation--drug induced liver injury prediction system (DILIps)” (PLoS Comput Biol, 2011).

How the values were obtained:
[1] = tested on: Hepatotoxicity;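 as to HepSE bilirubinemia: bilirubinemia hepatic side effect score drawn from the DILIps training data, a prediction system for drug-induced liver injury; call rule not given here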;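 as to HepSE cholecystitis: Cholecystitis-related hepatic side effect score drawn from the DILIps (drug-induced liver injury prediction) training data set; call rule not given here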;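 as to HepSE cirrhosis: cirrhosis hepatic side effect score taken from the DILIps (drug-induced liver injury prediction) training set; call rule not given here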; as to HepSE hepatic failure: call rule not given here;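 as to HepSE jaundice: Jaundice-related hepatic side-effect score drawn from the training data of the DILIps (drug-induced liver injury prediction system); call rule not given here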; as to HepSE liver disease: call rule not given here;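 as to HepSE liver fatty: hepatic side effect score for fatty liver, taken from the DILIps training set for predicting drug-induced liver injury; call rule not given here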
[2] = tested on: Hepatotoxicity; remark: listed apart in the source;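 as to HepSE bilirubinemia: bilirubinemia hepatic side effect score drawn from the DILIps training data, a prediction system for drug-induced liver injury; call rule not given here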;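 as to HepSE cholecystitis: Cholecystitis-related hepatic side effect score drawn from the DILIps (drug-induced liver injury prediction) training data set; call rule not given here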;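 as to HepSE cirrhosis: cirrhosis hepatic side effect score taken from the DILIps (drug-induced liver injury prediction) training set; call rule not given here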; as to HepSE hepatic failure: call rule not given here;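 as to HepSE jaundice: Jaundice-related hepatic side-effect score drawn from the training data of the DILIps (drug-induced liver injury prediction system); call rule not given here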; as to HepSE liver disease: call rule not given here;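 as to HepSE liver fatty: hepatic side effect score for fatty liver, taken from the DILIps training set for predicting drug-induced liver injury; call rule not given here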
[3] = tested on: Hepatotoxicity; remark: listed apart in the source;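 as to HepSE bilirubinemia: bilirubinemia hepatic side effect score drawn from the DILIps training data, a prediction system for drug-induced liver injury; call rule not given here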;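 as to HepSE cholecystitis: Cholecystitis-related hepatic side effect score drawn from the DILIps (drug-induced liver injury prediction) training data set; call rule not given here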;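 as to HepSE cirrhosis: cirrhosis hepatic side effect score taken from the DILIps (drug-induced liver injury prediction) training set; call rule not given here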; as to HepSE hepatic failure: call rule not given here;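 as to HepSE jaundice: Jaundice-related hepatic side-effect score drawn from the training data of the DILIps (drug-induced liver injury prediction system); call rule not given here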; as to HepSE liver disease: call rule not given here;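 as to HepSE liver fatty: hepatic side effect score for fatty liver, taken from the DILIps training set for predicting drug-induced liver injury; call rule not given here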
[4] = tested on: Hepatotoxicity; remark: listed apart in the source;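 as to HepSE bilirubinemia: bilirubinemia hepatic side effect score drawn from the DILIps training data, a prediction system for drug-induced liver injury; call rule not given here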;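 as to HepSE cholecystitis: Cholecystitis-related hepatic side effect score drawn from the DILIps (drug-induced liver injury prediction) training data set; call rule not given here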;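 as to HepSE cirrhosis: cirrhosis hepatic side effect score taken from the DILIps (drug-induced liver injury prediction) training set; call rule not given here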; as to HepSE hepatic failure: call rule not given here;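 as to HepSE jaundice: Jaundice-related hepatic side-effect score drawn from the training data of the DILIps (drug-induced liver injury prediction system); call rule not given here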; as to HepSE liver disease: call rule not given here;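 as to HepSE liver fatty: hepatic side effect score for fatty liver, taken from the DILIps training set for predicting drug-induced liver injury; call rule not given here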
[5] = tested on: Hepatotoxicity; remark: listed apart in the source; as to HepSE hepatic failure: call rule not given here; as to HepSE liver disease: call rule not given here
[6] = tested on: Hepatotoxicity; remark: listed apart in the source; as to HepSE hepatic failure: call rule not given here; as to HepSE liver disease: call rule not given here
[7] = tested on: Hepatotoxicity; remark: listed apart in the source
[8] = tested on: Hepatotoxicity; remark: listed apart in the source
[9] = tested on: Hepatotoxicity; remark: listed apart in the source
[10] = tested on: Hepatotoxicity; remark: listed apart in the source
[11] = tested on: Hepatotoxicity; remark: listed apart in the source
[12] = tested on: Hepatotoxicity; remark: listed apart in the source
[13] = tested on: Hepatotoxicity; remark: listed apart in the source
[14] = tested on: Hepatotoxicity; remark: listed apart in the source

| Structure (SMILES) | HepSE_cirrhosis [1] | HepSE_bilirubinemia [2] | HepSE_liver fatty [3] | HepSE_hepatitis [4] | HepSE_hepatic failure [5] | HepSE_liver disease [6] | HepSE_jaundice [7] | HepSE_cholelithiasis [8] | HepSE_cholecystitis [9] | HepSE_Combined Scores [10] | HepSE_hepatomegaly [11] | HepSE_liver function tests abnormal [12] | HepSE_elevated liver function tests [13] | HepSE_hepatic necrosis [14] |
| --- | --- | --- | --- | --- | --- | --- | --- | --- | --- | --- | --- | --- | --- | --- |
| CNC1(c2ccccc2Cl)CCCCC1=O (stereo not drawn) [KETAMINE] | 0 | 0 | 0 | 0 | 0 | 0 | 0 | 0 | 0 | 0 | 0 | 0 | 0 | 0 |
| CC(=O)N1CCN(c2ccc(OCC3COC(Cn4ccnc4)(c4ccc(Cl)cc4Cl)O3)cc2)CC1 (stereo not drawn) [KETOCONAZOLE] | 0 | 0 | 0 | 0 | 0 | 0 | 0 | 0 | 0 | 0 | 0 | 0 | 0 | 0 |
| CC(C(=O)O)c1cccc(C(=O)c2ccccc2)c1 (stereo not drawn) [KETOPROFEN] | 0 | 0 | 0 | 1 | 0 | 0 | 1 | 0 | 0 | 2 | 0 | 0 | 0 | 0 |
| O=C(c1ccccc1)c1ccc2n1CCC2C(=O)O (stereo not drawn) [KETOROLAC] | 0 | 0 | 0 | 1 | 1 | 0 | 1 | 0 | 0 | 3 | 0 | 0 | 0 | 0 |
| CN1CCC(=C2c3ccccc3CC(=O)c3sccc32)CC1 [KETOTIFEN] | 0 | 0 | 0 | 1 | 0 | 0 | 0 | 0 | 0 | 1 | 0 | 0 | 0 | 0 |
| CC(CCc1ccccc1)NCC(O)c1ccc(O)c(C(N)=O)c1 (stereo not drawn) [LABETALOL] | 0 | 0 | 0 | 1 | 0 | 0 | 1 | 0 | 0 | 4 | 0 | 0 | 1 | 1 |
| OC[C@H]1O[C@@H](O[C@@H]2[C@@H](CO)O[C@](O)(CO)[C@H]2O)[C@H](O)[C@@H](O)[C@H]1O [LACTULOSE] | 0 | 0 | 0 | 0 | 0 | 0 | 0 | 0 | 0 | 0 | 0 | 0 | 0 | 0 |
